The text below walks through data of PMC12349723, “Computationally accelerated identification of P-glycoprotein inhibitors” (PLOS One, 2025).

Where only a bound is given, the exact number is not on record here.

Data set [1] in a line: SWISS-ADME computational analysis of chemical properties. To be noted: predicted aqueous solubility compared to that observed in the laboratory. The text has this: Identifying P-gp inhibitors that are not transport substrates remains inherently challenging. To that end, computational tools such as the SWISS-ADME server attempt to use a molecule’s unique chemical and structural characteristics to predict whether it is likely to be a P-gp transport substrate. Our LC-MS/MS assays allowed us to retroactively test the validity of predictions from SWISS-ADME. […] Alternative identifiers for the molecules identified in this study are shown in S7 Table.
S1 Table. Known P-gp Inhibitors and Predicted Chemical Properties. A non-exhaustive list of known P-gp inhibitors and their selected chemical properties ^[64, 65]. Clinical trial outcomes were adapted from ^[10, 11]. Compounds were evaluated using the SWISS-ADME server ^[54]. […] “Predicted P-gp Substrate” - predicted by SWISS-ADME to be a transport substrate of P-gp. “Known P-gp Substrate” – In addition to being P-gp inhibitors, these molecules are: known transport substrates of P-gp, known non-transport substrates of P-gp, unknown whether it is a transport substrate of P-gp ^[66-68]. If the molecule is designated in a specific generation of P-gp inhibitors - First Generation P-gp inhibitors, Second generation P-gp inhibitors, Third generation P-gp inhibitors.

The nature of data set [2]: Resazurin cell viability pre-screen in DU145-TXR cells with or without PTX. Format: cell-based. To be noted: human, mean of two experiments in triplicate, read-out: Viability, 15 µM compound alone. On the procedure: Culture of the DU145, DU145-TXR, and HFL1 cell lines was performed as described in [8]. Culture of the A2780 and A2780-ADR cell lines was performed as described in [9]. MTT assays were performed as described in [8] with minor modifications. LC-MS/MS accumulation assays were performed as described in {Nanayakkara, 2018 #173} [9] with some modifications. […] The inhibitor concentration was lowered to 15 µM here, as the goal of the study was to identify compounds that were effective in reversing MDR at low concentrations, and to determine if the expanded virtual-assisted methods improved on our first-draft attempt. Compounds 56–98 were pre-screened using Resazurin cell viability assays: cells were incubated with 15 µM compound with or without 500 nM PTX for 48 hours, after which cell survival was assessed similar to [39]. Data represent the mean of two separate experiments, with n = 3 samples per experiment (n = 6 total) (S4 Table). The top performing compounds from this initial screen were re-tested with MTT viability assays against DU145-TXR cells, as described below.
S4 Table. Pre-screening of compounds 56 – 98 against DU145-TXR cells with resazurin assays. DU145-TXR cells were incubated with 15 µM compound with or without 500nM PTX for 48 hrs; survival was subsequently determined with the Resazurin viability assay ^[37]. […] Percent re-sensitization is defined as the percent change in viability between cells treated with compound and PTX, versus cells treated with PTX alone. In some instances, the assay reported an increase in viability with compound + PTX, and no percent sensitization is reported. ‘Follow-up Testing’ compounds were re-assessed with MTT assays (Figure 1). Compounds 59 and 89 (*, ‘Follow-up Testing’) were used as negative controls in follow-up MTT assays to test for consistency of results, e.g. to confirm that molecules eliminated in Resazurin assays were justifiably eliminated from later screening with MTT assays.
For orientation: Resazurin is reduced to fluorescent resorufin, in cell work by metabolically active cells.

Data set [3] addresses T1, P-gp (Homo sapiens, UniProt P08183).
T1 construct: The MDR, P-gp overexpressing DU145-TXR cells were maintained under positive selection pressure; endogenous in cells; host or cells: DU145-TXR (paclitaxel-resistant sub-line of DU145 human prostate cancer cells)
Briefly: Top Hit classification from combined in vitro criteria. The following applies: reverse MDR, do not increase PTX toxicity in chemo-sensitive cancer cells, non-toxic to noncancerous cells, not P-gp substrates.

For data set [4], the system named is P-gp. On the set-up: method as in earlier work. To be noted: ref [66-68]; cited from earlier work.
In another data set the test system is DU145 cells. On the set-up: method as in PMID 26516582. To be noted: ref [8]; cited from earlier work.
Another data set deals with DU145-TXR cells. The following applies: cited from earlier work.
Data set [5] has as its target T1, P-gp. Briefly: LC-MS/MS intracellular accumulation assay with or without tariquidar (P-gp transport substrate test) in DU145-TXR cells. Format: in vitro ADME. On the procedure:
DU145-TXR cells were seeded at 350,000 cells per well in 6-well plates in complete RPMI medium. […] A full sample of DAU was also prepared for quantitative analysis. […] Media was removed with a glass vacuum aspirator. Cells were re-suspended and washed in 2mL of ice-cold Hank’s Balanced Salt Solution (HBSS, Gibco), and spun again at 2400 rpm. Cell lysates were diluted in 600 µL of ice-cold HBSS, flash-frozen in liquid nitrogen, and stored at −80 °C until analysis. LC-MS/MS intracellular accumulation assays were performed in collaboration with the Pharmacology Core at the University of Texas Southwestern Medical Center (UTSW). […] This method allowed us to quantify the change – if any – in the relative amount of compound present in the samples when TQR was added. An increase in the relative amount of compound indicates enhanced intracellular retention that compound. […] The “Internal Standard” (IS) is a known substance added in a constant amount to each sample. The “Peak Area”, expressed as “counts”, describes the number of MS/MS spectra from the experimental compound and serves as a measure of its relative abundance. […] These values allow a comparison of the relative abundance of compound between the “- TQR” and “+ TQR” samples, and to test for statistically significant differences. LC-MS/MS quantification was performed as follows. Cell lysate was aliquoted into Eppendorf tubes. In contrast to [9], blank cell lysates were not spiked with varying concentrations of each compound to create a standard curve, since compound amounts were normalized to abundance of the internal standard. […] The supernatant was then transferred to an HPCL vial, and subsequently analyzed using LC-MS/MS using a Sciex 4000QTRAP mass spectrometer coupled to a Shimadzu Prominence LC. […] The column flow rate was 1.5 ml/min using an Agilent C18 XDB, 5 micron packing 50 × 4.6 mm column. […] A BSA standard curve was then prepared in water and mixed using the same ratio. […] The ratio of Analyte to Internal Standard was normalized to the lysate content for each individual sample. […] Statistical significance was determined using a Student’s T Test in GraphPad Prism. We aimed to identify P-gp inhibitors that are not transport substrates of the pump itself. […] To test these predictions in vitro, liquid chromatography with tandem mass spectrometry (LC-MS/MS) was used to assess the intracellular accumulation of experimental compounds as described in [9]. […] The relative intracellular accumulation of each experimental compound was then assessed using LC-MS/MS. […] The P-gp substrate and chemotherapeutic daunorubicin (DAU) was used as a positive control for P-gp-mediated transport.

The test system of data set [6] is HFL1 (human lung fibroblast) cell line. As to the kind of experiment: MTT viability assay, inherent toxicity in non-cancerous HFL1 cells. Format: cell-based. To be noted: HFL1 cells, compound alone, mean of 8 samples. On the procedure:
The chemotherapeutic sensitive DU145 human prostate cancer cells and the multidrug resistant sub-line, DU145-TXR, were generous gifts from Dr. Evan Keller (University of Michigan, Ann Arbor, MI). The MDR, P-gp overexpressing DU145-TXR cells were maintained under positive selection pressure by supplementing complete medium with 10 nM paclitaxel (Acros Organics, NJ). […] The MDR, P-gp overexpressing A2780-ADR cell line was maintained under positive selection pressure by supplementing complete medium with 100 nM doxorubicin (Fisher Scientific, NJ). The non-cancerous HFL1 (human lung fibroblast) cell line cell line was a generous gift from Dr. Robert Harrod (Southern Methodist University, Dallas, TX) and was maintained in complete F12K media consisting of F12K with 10% fetal bovine serum, 100 U/mL penicillin, and 100 µg/mL streptomycin (Gibco). Flasks and 96 well plates that were used with the non-cancerous line HFL1 were pre-treated with 0.1 mg/ml Collagen Type 1 (Gibco) and rinsed with PBS (Fisher).
MTT assays measure the reduction of yellow, water soluble 3-(4,5-dimethylthiazol-2-yl)-2,5-diphenyltetrazolium bromide (MTT) to blue, insoluble formazan crystals by cellular reductase processes in living cells. Cells were trypsinized from monolayers and seeded in complete medium in 96 well plates. Cancerous cell lines (DU145, DU145-TXR, A2780, A2780-ADR) were seeded at 3,000 cells per well in complete RPMI medium. The non-cancerous HFL1 line was seeded at 4,000 cells per well in complete F12K medium, in collagen-treated plates (Collagen Type 1, Gibco). Cells were incubated with experimental compounds for 48 hours at 37 °C and 5% CO2 in a humidified incubator. At 48 hours, MTT was added (20 µL/well of 5 mg/mL MTT in PBS) to each well. After incubation for 4 hours, the media was removed, and the formazan crystals were dissolved in 100 µL DMSO per well. Plates containing the semi-adherent A2780 or A2780-ADR lines were spun at 1400 rpm for 3 minutes prior to aspiration of media, and the addition of DMSO. Plates were shaken for 10 minutes at 500 rpm on an Orbital shaker (LabDoctor from MidSci, St Louis, MO). The absorbance was measured at 570 nm using a Bio-Tek Cytation 5 (Bio-Tek, Winooski, VT). The measured absorbance value was correlated with the number of metabolically active cells in that well, corrected for absorbance of media. The percent of cell viability (termed ‘survival’ here) was calculated as a percentage of survival of the control condition, which refers to vehicle-treated (DMSO as vehicle) cells, or vehicle-and-chemotherapeutic-treated cells, if testing a compound’s ability to re-sensitize cells to a chemotherapeutic. Percent survival was calculated using the following equation:
% Survival=100 × absorbance of experimental cells/mean absorbance of control treated cells
For DU145-TXR, DU145, HFL1 and A2780 cells – data are the mean ± one standard deviation, 8 samples per compound, from at least two independent trials per compound. […] For A2780-ADR cells, data are the mean ± one standard deviation with 12 samples per compound, from at least two independent trials per compound.
If a P-gp inhibitor is intrinsically toxic to non-cancerous cells, it is more likely to be participating in undesirable off-target interactions. The top compounds from the screens shown above were screened for inherent toxicity using the non-cancerous HFL1 (human lung fibroblast) cell line. HFL1 cells were incubated with 15 µM compound for 48 hours, after which cell viability was assessed using MTT cell viability assays. A 20% reduction in cell viability (compared to DMSO-treated cells) was considered the maximum acceptable toxicity (see dotted line). The chemotherapeutic daunorubicin was included as a positive control for toxicity.
The top compounds from previous screens were tested against the non-cancerous HFL1 cell line.
In general terms: Tetrazolium dyes change colour on reduction, which living cells bring about.

Where [7] appears, read: DU145-TXR, 5 µM compound, 2.5 h, with 500 nM tariquidar, mean ± SD, triplicate.
The mark [8] stands for this setting: DU145-TXR, 5 µM compound, 2.5 h, without tariquidar, mean ± SD, triplicate.
Where [9] appears, read: significant difference = likely P-gp transport substrate.

T1 sequence (P08183 whole entry): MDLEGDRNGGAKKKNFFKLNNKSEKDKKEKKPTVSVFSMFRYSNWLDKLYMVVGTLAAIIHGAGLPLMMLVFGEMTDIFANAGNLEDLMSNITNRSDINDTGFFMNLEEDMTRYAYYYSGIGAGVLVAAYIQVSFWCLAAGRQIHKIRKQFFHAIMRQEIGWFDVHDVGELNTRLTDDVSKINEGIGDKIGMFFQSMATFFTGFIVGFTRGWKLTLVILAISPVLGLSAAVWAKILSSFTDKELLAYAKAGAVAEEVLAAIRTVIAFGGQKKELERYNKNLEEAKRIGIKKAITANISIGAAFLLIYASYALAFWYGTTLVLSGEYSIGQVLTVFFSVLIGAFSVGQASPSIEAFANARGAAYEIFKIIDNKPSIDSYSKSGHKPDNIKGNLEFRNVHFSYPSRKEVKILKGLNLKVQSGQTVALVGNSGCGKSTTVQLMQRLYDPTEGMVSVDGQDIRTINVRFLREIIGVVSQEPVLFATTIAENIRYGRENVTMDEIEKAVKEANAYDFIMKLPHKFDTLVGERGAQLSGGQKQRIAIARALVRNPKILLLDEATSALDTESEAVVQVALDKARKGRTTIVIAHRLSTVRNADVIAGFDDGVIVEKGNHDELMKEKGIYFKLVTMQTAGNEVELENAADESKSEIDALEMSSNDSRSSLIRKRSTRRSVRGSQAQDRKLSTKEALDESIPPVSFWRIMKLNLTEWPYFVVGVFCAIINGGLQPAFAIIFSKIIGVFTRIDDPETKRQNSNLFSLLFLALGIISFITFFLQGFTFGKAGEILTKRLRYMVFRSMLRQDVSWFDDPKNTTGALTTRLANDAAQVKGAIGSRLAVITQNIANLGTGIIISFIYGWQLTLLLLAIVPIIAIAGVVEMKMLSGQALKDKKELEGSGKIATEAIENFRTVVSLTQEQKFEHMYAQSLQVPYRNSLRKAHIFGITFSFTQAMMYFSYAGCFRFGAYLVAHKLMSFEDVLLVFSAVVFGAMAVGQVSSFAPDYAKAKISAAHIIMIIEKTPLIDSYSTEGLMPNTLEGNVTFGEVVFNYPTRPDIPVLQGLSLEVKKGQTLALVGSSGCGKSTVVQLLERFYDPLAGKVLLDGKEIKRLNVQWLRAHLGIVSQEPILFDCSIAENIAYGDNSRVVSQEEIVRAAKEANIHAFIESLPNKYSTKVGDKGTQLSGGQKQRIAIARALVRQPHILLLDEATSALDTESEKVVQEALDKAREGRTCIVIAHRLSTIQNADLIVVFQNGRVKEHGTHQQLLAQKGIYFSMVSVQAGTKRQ

By viability is commonly meant a read-out of living cells in per cent, often relative to untreated cells. In the case of `Cc1cccc(C2CC(=O)c3cnn(-c4nc5ccccc5[nH]4)c3C2)c1` (stereo not shown) [Compound 79, Cc1cccc(c1)C1Cc2c(cnn2-c2nc3ccccc3[nH]2)C(=O)C1], in data set [1], the “Correct Water Solubility Prediction?” value is reported as “Yes”. Also, in data set [2], the viability at 48 h, 15 µM was found to be 89.9%. Also, the “Top Hit” value at P-gp [3] is reported as “No”.

For the molecule `C=C[C@H]1C[N@@]2CC[C@H]1C[C@@H]2[C@@H](O)c1ccnc2ccc(OC)cc12` [Quinidine], in the data set on P-gp [4], the “P-gp Substrate? (known transport substrate of P-gp)” value (“P-gp Substrate?” below) is “Yes”.

On to `C/C=C/C[C@@H](C)C(=O)[C@H]1C(=O)N[C@@H](C(C)C)C(=O)N(C)CC(=O)N(C)[C@@H](CC(C)C)C(=O)N[C@@H](C(C)C)C(=O)N(C)[C@@H](CC(C)C)C(=O)N[C@@H](C)C(=O)N[C@H](C)C(=O)N(C)[C@@H](CC(C)C)C(=O)N(C)[C@@H](CC(C)C)C(=O)N(C)[C@@H](C(C)C)C(=O)N1C` [Valspodar], for which, in the data set with P-gp [4], the “P-gp Substrate?” value was “No”.

Take `COC(=O)[C@H]1[C@H]2C[C@@H]3c4[nH]c5cc(OC)ccc5c4CCN3C[C@H]2C[C@@H](OC(=O)c2cc(OC)c(OC)c(OC)c2)[C@@H]1OC` [Reserpine]: the “P-gp Substrate?” value with P-gp [4] is recorded as “No”.

On to `CC(=O)O[C@H]1C(=O)[C@@]2(C)[C@H]([C@H](OC(=O)c3ccccc3)[C@]3(O)C[C@H](OC(=O)[C@H](O)[C@@H](NC(=O)c4ccccc4)c4ccccc4)C(C)=C1C3(C)C)[C@]1(OC(C)=O)CO[C@@H]1C[C@@H]2O` [Paclitaxel, paclitaxel], for which, in the data set on DU145 cells, the “Survival of DU145 parental cells at 500 nmol/L PTX” value is “less than 10%”. The “Survival of DU145-TXR cells at 500 nmol/L PTX” value in the data set with DU145-TXR cells (500 nmol/L PTX, ref [8]) is “greater than 85%”. Besides, the “Increase in the IC50 of PTX in DU145-TXR relative to DU145 cells” value in the data set on DU145-TXR cells (DU145-TXR vs DU145 parental cells, ref [38]) is 34 fold.

Take `O[C@@H](COc1cccc2ncccc12)CN1CCN([C@@H]2c3ccccc3[C@@H]3[C@H](c4ccccc42)C3(F)F)CC1` [Zosuquidar]: the “P-gp Substrate?” value with P-gp [4] is listed as “Yes”.

For the molecule `COc1cccc2c1C(=O)c1c(O)c3c(c(O)c1C2=O)C[C@@](O)(C(C)=O)C[C@@H]3O[C@H]1C[C@H](N)[C@H](O)[C@H](C)O1` [Daunorubicin, reference compound], on P-gp [5] (setting [7]), the “Intracellular accumulation (normalized ratio of compound to internal standard), Trial 1, + TQR” value is reported as 0.216 ± 0.002 and the “Intracellular accumulation (normalized ratio of compound to internal standard), Trial 2, + TQR” value stood at 0.232 ± 0.016. In addition, on P-gp [5] (setting [8]), the “Intracellular accumulation (normalized ratio of compound to internal standard), Trial 1, - TQR” value is given as 0.014 ± 0.001 and the “Intracellular accumulation (normalized ratio of compound to internal standard), Trial 2, - TQR” value worked out at 0.017 ± 0.001. For the same molecule, on P-gp [5] (Student's T test of the mean), the “P (- TQR vs + TQR), Trial 2” value was 2x10^-5. Also, the “P (- TQR vs + TQR), Trial 1” value at P-gp [5] (Student's T test of the mean, listed as DAU) was < 1x10^-6. In addition, on P-gp [5] (setting [9]), the “Significance of accumulation with tariquidar, Trial 1” value is on record as “**** (P < 0.0001 = ****)” and the “Significance of accumulation with tariquidar, Trial 2” value is “**** (P < 0.0001 = ****)”. Further, the “Mean % Survival” value in data set [6] is recorded as 18.1%.
